{"source": "paper PMC6694829", "about": "“Identification of Immunodominant HIV-1 Epitopes Presented by HLA-C*12:02, a Protective Allele, Using an Immunopeptidomics Approach” (Journal of Virology, 2019)", "key": {"HLA-C*12:02": {"target": "HLA-C*12:02 (Homo sapiens, UniProt P10321, A176E/A330V/C350S/D114A/D33Y/L171W/L180W/L218V/M285V/M309V/M331V/P208H/Q277E/Q291P/S123Y/S297R/S48A/T329A/T363A/V319A/V328M)", "experiment": "HLA class I stabilization assay using RMA-S-C1202 cells", "format": "cell-based", "details": "for affinities of binding to HLA-C*12:02, Nef-MY9 compared with Nef-MY10: data not shown, words; for binding to HLA-C*12:02 (stabilization of surface HLA expression, expression index) / binding to HLA-C*12:02 at higher peptide concentration: RMA-S-C1202 cells, result in words; for binding to HLA-C*12:02 (stabilization of surface HLA expression, expression index): peptide 0.1 to 100 μM, pulsed 26°C 1 h then 37°C 3 h, DT-9 staining, flow cytometry; for binding to HLA-C*12:02 at higher peptide concentration: peptide 100 to 300 μM", "experimental": "The affinity of peptide binding to HLA-C*12:02 was examined using RMA-S-C1202 cells as previously described ([67]). Briefly, RMA-S-C1202 cells were cultured at 26°C for 16 h and then pulsed with peptides at 26°C for 1 h and subsequently incubated at 37°C for 3 h. Staining of cell surface HLA-C molecules was performed with DT-9, an HLA-C-specific monoclonal antibody (mAb) (a gift from Mary Carrington, NIH), and fluorescein isothiocyanate (FITC)-conjugated sheep anti-mouse IgG (Jackson ImmunoResearch). Staining data were acquired on a FACSCanto II instrument (BD Biosciences) and analyzed using FlowJo 10.5.3 software. Relative HLA expression was calculated as the ratio of the mean fluorescence intensity (MFI) of peptide-pulsed RMA-S-C1202 cells to that of control (non-peptide-pulsed) cells kept at 26°C."}, "[1]": {"test_system": "PBMCs from HIV-1-infected HLA-C*12:02+ individuals", "experiment": "ex vivo IFN-γ ELISpot assay", "format": "cell-based, human", "details": "for number of individuals with T cell response to the peptide: of 20 chronically HIV-1-infected HLA-C*12:02+ Japanese individuals, peptide 1 μM, positive >100 spots/10^6 PBMCs; for average magnitude of the T cell responses in individuals recognizing the epitope: ex vivo ELISpot, 20 HLA-C*12:02+ individuals screened, responders only", "experimental": "Peripheral blood mononuclear cells (PBMCs) were separated from whole blood and stored at −80°C. ELISpot assays were performed as previously described ([52]). […] The plates were then incubated for 16 h at 37°C and subsequently washed with PBS before the addition of biotinylated anti-IFN-γ mAb (Mabtech) at 1 μg/ml. After the plates had been incubated at room temperature for 90 min, they were washed with PBS and then incubated with streptavidin-conjugated alkaline phosphatase (Mabtech) for 60 min at room temperature. Following washes with PBS, individual cytokine-producing cells were visualized as dark spots after a 20-min reaction with 5-bromo-4-chloro-3-indolyl phosphate and nitroblue tetrazolium in the presence of an alkaline phosphatase-conjugated substrate (Bio-Rad). The spots were counted with an Eliphoto-Counter (Minerva Teck). The number of spots was calculated per 10^6 PBMCs. One hundred spots per 10^6 PBMCs were defined as a positive response, as described previously ([52])."}, "CD8+ T cells [2]": {"test_system": "CD8+ T cells", "experiment": "intracellular cytokine staining (ICS) assay with peptide-expanded bulk T cells", "format": "cell-based, human", "details": "peptide-expanded bulk T cells from responder KI-1407 (Env-RL9) or KI-1394 (Vif-DY9); IFN-γ ICS; words", "experimental": "PBMCs from HIV-1-infected individuals were expanded by culture with each HIV-1 peptide for 2 weeks. .221-C1202 cells prepulsed with each HIV-1 peptide or .221-C1202 cells infected with HIV-1 NL4-3 were added to a 96-well plate together with bulk-cultured T cells, and the cells were incubated for 4 h at 37°C with brefeldin A (10 μg/ml). The cells were then stained with peridinin chlorophyll protein (PerCP)-labeled anti-CD3 mAb (BioLegend), phycoerythrin (PE)-labeled anti-CD4 mAb (BioLegend), and allophycocyanin (APC)-labeled anti-CD8 mAb (Dako) and subsequently fixed with 4% paraformaldehyde and incubated in permeabilization buffer (0.1% saponin–10% FBS–PBS). Thereafter, the cells were stained with FITC-labeled anti-IFN-γ mAb (BioLegend). Staining data were acquired on a FACSCanto II instrument (BD Biosciences) and analyzed using FlowJo 10.5.3 software."}, "CD8+ T cells [3]": {"test_system": "CD8+ T cells", "details": "comparison Nef-MY9 vs Nef-MY10; previous study; cited from earlier work", "source_text": "In addition to Nef-VY9, which was previously reported as immunodominant HLA-C*12:02-restricted epitope MY9 ([52], [53]), the C-terminally extended Nef-VF10 peptide (VARELHPEYF) was also among the HIV-1 peptides identified here. […] (Nef-MY9) much more efficiently than […]Y (Nef-MY10) ([52]), despite the fact that the affinities of ..."}, "[4]": {"target": "HLA-C*12:02 heavy chain and β2-microglobulin (Homo sapiens, UniProt P10321, A176E/A330V/C350S/D114A/D33Y/L171W/L180W/L218V/M285V/M309V/M331V/P208H/Q277E/Q291P/S123Y/S297R/S48A/T329A/T363A/V319A/V328M)", "experiment": "peptide/HLA refolding assay analyzed by FPLC", "format": "binding", "details": "for refolding with HLA-C*12:02 heavy chain and β2m: low-temperature refolding, FPLC, result in words; for refolded peptide/HLA-C*12:02/β2m complex FPLC peak Height: heavy chain 20 μM, β2m 2 μM, peptide 85 μM, 48 h at 4°C, Superdex 75, Fig. 2d", "experimental": "Refolding of peptides with the HLA heavy chain and β2m was performed as previously described ([74]). Briefly, HLA-C*12:02 heavy chain and β2m were overexpressed in Escherichia coli as inclusion bodies and solubilized with 8 M urea. Before refolding, only β2m was refolded and purified with Superdex 75 pg 26/600 (GE Healthcare) chromatography, and the solubilized HLA heavy chain was treated with 6 M guanidine hydrochloride at 4°C overnight. The dissolved HLA heavy chain, purified monomer β2m, and peptide (final concentrations of 20 μM, 2 μM, and 85 μM, respectively) were diluted in 10 ml of refolding buffer (100 mM Tris-HCl [pH 8.0], 400 mM L-arginine, 2 mM EDTA-Na, 5 mM reduced L-glutathione, and 0.5 mM oxidized L-glutathione). After 48 h of slow stirring at 4°C, the peptide–HLA-C complex was then concentrated and purified by Superdex 75 pg 26/600 (GE Healthcare) chromatography."}}, "data": [{"sequence": "MARELHPEYY [Nef-MY10, […], consensus version of Nef-VF10, reference compound]", "values": [{"measurement": "affinities of binding to HLA-C*12:02, Nef-MY9 compared with Nef-MY10", "setting": "HLA-C*12:02", "value": "similar"}]}, {"sequence": "DAKLVITTY [Vif-DY9, HIV-1 Vif 61–69 peptide …]", "values": [{"measurement": "number of individuals with T cell response to the peptide", "setting": "[1]", "value": 1}, {"measurement": "HLA restriction of T cell response: recognition of peptide-prepulsed 721.221 cells expressing single HLA alleles", "setting": "CD8+ T cells [2]", "value": "higher-magnitude response to Vif-DY9-pulsed HLA-B*35:01-expressing cells than to Vif-DY9-pulsed HLA-C*12:02-expressing cells"}]}, {"sequence": "MARELHPEY [Nef-MY9, reference compound]", "values": [{"measurement": "binding to HLA-C*12:02 (stabilization of surface HLA expression, expression index)", "setting": "HLA-C*12:02", "value": "exhibited affinity for HLA-C*12:02 molecules"}, {"measurement": "affinities of binding to HLA-C*12:02, Nef-MY9 compared with Nef-MY10", "setting": "HLA-C*12:02", "value": "similar"}, {"measurement": "average magnitude of the T cell responses in individuals recognizing the epitope", "setting": "[1]", "value": 167, "unit": "SFC/10^6 PBMCs"}, {"measurement": "number of individuals with T cell response to the peptide", "setting": "[1]", "value": "5/20"}, {"measurement": "recognition by PBMCs expanded in vitro with a peptide cocktail including MARELHPEYY", "setting": "CD8+ T cells [3]", "value": "much more efficiently than […] (Nef-MY10)"}, {"measurement": "refolding with HLA-C*12:02 heavy chain and β2m", "setting": "[4]", "value": "complex of HLA-C*12:02, peptide, and β2m was generated"}]}, {"sequence": "KGALDLSHF [Nef-KF9, HIV-1 Nef 82–90 peptide; synthesized as …]", "values": [{"measurement": "binding to HLA-C*12:02 at higher peptide concentration", "setting": "HLA-C*12:02", "value": "did not exhibit detectable binding"}, {"measurement": "refolded peptide/HLA-C*12:02/β2m complex FPLC peak Height", "setting": "[4]", "value": 4.48, "unit": "mAU"}, {"measurement": "refolding with HLA-C*12:02 heavy chain and β2m", "setting": "[4]", "value": "shown to refold with HLA-C*12:02 heavy chain and β2m molecules"}]}, {"sequence": "MSQVTNSATIM [Gag-MM11, HIV-1 Gag 367–377 peptide eluted from HLA-C*12:02; tested as clade B consensus […]]", "values": [{"measurement": "binding to HLA-C*12:02 at higher peptide concentration", "setting": "HLA-C*12:02", "value": "did not exhibit detectable binding"}, {"measurement": "refolded peptide/HLA-C*12:02/β2m complex FPLC peak Height", "setting": "[4]", "value": 3.51, "unit": "mAU"}, {"measurement": "refolding with HLA-C*12:02 heavy chain and β2m", "setting": "[4]", "value": "shown to refold with HLA-C*12:02 heavy chain and β2m molecules"}]}, {"sequence": "FLGKIWPSH [Gag-FH9, HIV-1 Gag 433–441 peptide …]", "values": [{"measurement": "binding to HLA-C*12:02 at higher peptide concentration", "setting": "HLA-C*12:02", "value": "did not exhibit detectable binding"}, {"measurement": "refolded peptide/HLA-C*12:02/β2m complex FPLC peak Height", "setting": "[4]", "value": 2.27, "unit": "mAU"}, {"measurement": "refolding with HLA-C*12:02 heavy chain and β2m", "setting": "[4]", "value": "shown to refold with HLA-C*12:02 heavy chain and β2m molecules"}]}, {"sequence": "ILKEPVHGVYY [Pol-IY11, HIV-1 Pol 464–474 peptide […]]", "values": [{"measurement": "binding to HLA-C*12:02 (stabilization of surface HLA expression, expression index)", "setting": "HLA-C*12:02", "value": "exhibited affinity for HLA-C*12:02 molecules"}, {"measurement": "average magnitude of the T cell responses in individuals recognizing the epitope", "setting": "[1]", "value": 130, "unit": "SFC/10^6 PBMCs"}, {"measurement": "number of individuals with T cell response to the peptide", "setting": "[1]", "value": "5/20"}, {"measurement": "refolded peptide/HLA-C*12:02/β2m complex FPLC peak Height", "setting": "[4]", "value": 4.88, "unit": "mAU"}, {"measurement": "refolding with HLA-C*12:02 heavy chain and β2m", "setting": "[4]", "value": "shown to refold with HLA-C*12:02 heavy chain and β2m molecules"}]}, {"sequence": "LGKIWPSH [Gag-LH8, HIV-1 Gag 434–441 peptide LGKIWPSH]", "values": [{"measurement": "binding to HLA-C*12:02 at higher peptide concentration", "setting": "HLA-C*12:02", "value": "did not exhibit detectable binding"}, {"measurement": "refolded peptide/HLA-C*12:02/β2m complex FPLC peak Height", "setting": "[4]", "value": 6.41, "unit": "mAU"}, {"measurement": "refolding with HLA-C*12:02 heavy chain and β2m", "setting": "[4]", "value": "shown to refold with HLA-C*12:02 heavy chain and β2m molecules"}]}]}
